Like-named read-outs stand apart in the source and are kept apart here.
Legend:
[1] = test system: T1, hMC3-R; experiment: Competitive inhibition assay using [I125]-NDP-α-MSH, hMC3-R membranes; format: binding, human; conditions: for Ki: read-out: Ki (nM) (NDP-α-MSH) MC3-R
T1 construct: expressed in transfected cells; host or cells: HEK-293
Protocol: (§1) Competitive inhibition assay using [1125]-NDP-α-MSH. A competitive inhibition binding assay was conducted using membranes prepared from HEK-293 cells transfected to express hMC3-R, hMC4-R or hMC5-R, and from B-16 mouse melanoma cells (containing MC1-R) using 0.2 to 0.4 nM [I^125]-NDP-α-MSH (New England Nuclear) in 50 mM HEPES buffer containing 1 mM MgCl2, 2 mM CaCl2, and 5 mM KCl, at pH 7.2. In certain experiments, HEK-293 cells transfected to express hMC1-R were also employed. The assay tube also contained a chosen concentration of the test compound of this invention, typically a 1 μM concentration, for determining inhibition of the binding of [^1125]-NDP-α-MSH to its receptor. Non-specific binding was measured by inhibition of binding of [I^125]-NDP-α-MSH in the assay with the presence of 1 μM α-MSH.
(§2) The assay mixture was incubated for 90 minutes at room temperature, then filtered and the membranes washed three times with ice cold buffer. The filter was dried and counted in a gamma counter for remaining radioactivity bound to the membranes. 100% specific binding was defined as the difference in radioactivity (cpm) bound to cell membranes in the absence and presence of 1 μM α-MSH. The cpm obtained in presence of test compounds were normalized with respect to 100% specific binding to determine the percent inhibition of [125]-NDP-α-MSH binding. Each assay was conducted in triplicate and the actual mean values are described, with results less than 0% reported as 0%.

[2] = test system: T2, hMC5-R; experiment: cAMP functional assay, HEK-293 cells expressing hMC5-R; format: cell-based, human; conditions: cAMP assay at 1 μM
T2 construct: expressed in transfected cells; host or cells: HEK-293
Protocol: (§3) General method for EC50 determination in functional activity assay. Functional evaluation of compounds at melanocortin receptors was performed by measuring the accumulation of intracellular cAMP in HEK-293 cells expressing hMC3-R, hMC4-R or hMC5-R, and in B-16 mouse melanoma cells expressing MC1-R. Cells suspended in Earle's Balanced Salt Solution containing 10 mM HEPES (pH 7.5), 5 mM MgCl2, 1 mM glutamine, 0.1% albumin and 0.6 mM 3-isobutyl-1-methyl-xanthine, a phosphodiesterase inhibitor, were plated in 96 well plates at a density of 0.5×10^5 cells per well. Cells were incubated with the test compounds in the presence or absence of α-MSH for 1 hour at 37° C. cAMP levels in the cell lysates were measured using an EIA kit (Amersham). Data analysis and EC50 values were determined using nonlinear regression analysis with Prism Graph-Pad software.
(§4) Functional status. The agonist/antagonist status with respect to MC1-R, MC-3R, MC4-R and MC5-R of certain compounds of the invention was determined.

[3] = test system: T2, hMC5-R; experiment: Competitive inhibition assay using [I125]-NDP-α-MSH, hMC5-R membranes; format: binding, human; conditions: for Ki: read-out: Ki (nM) (NDP-α-MSH) MC5-R
Protocol: as §1, §2

[4] = test system: T3, hMC4-R; experiment: Competitive inhibition assay using [I125]-NDP-α-MSH, hMC4-R membranes; format: binding, human; conditions: for Inhibition at 1 μM (NDP-α-MSH) MC4-R: 1 μM compound; for attenuation of binding of α-MSH and AgRP to MC4-R: both ligands (NDP-α-MSH and AgRP), summary
T3 construct: expressed in transfected cells; host or cells: HEK-293
Protocol: as §1, §2

[5] = test system: T3, hMC4-R; format: binding, human; conditions: for Inhibition at 1 μM (AgRP) MC4-R: 1 μM compound
Protocol: Competitive binding assay using [I^125]-AgRP (83-132). Competitive binding studies using [I^125]-AgRP (83-132) were carried out on membranes isolated from cells expressing hMC4-R. The assay was performed in 96 well GF/B Millipore multiscreen filtration plates (MAFB NOB10) pre-coated with 0.5% bovine serum albumin (Fraction V). The assay mixture contained 25 mM HEPES buffer (pH 7.5) with 100 mM NaCl, 2 mM CaCl2, 2 mM MgCl2, 0.3 mM 1,10-phenanthroline, 0.5% bovine serum albumin, cell membranes, radioligand [I^125]-AgRP (83-132) (NEN), and increasing concentrations of compounds in a total volume of 200 μL. Binding was measured at radioligand concentrations of 0.2 nM. After incubating for 1 hour at 37° C., the reaction mixture was filtered and washed with an assay buffer containing 500 mM NaCl. The dried discs were punched out from the plate and counted on a gamma counter. Care was taken to limit the specific binding of the ligand to an amount not exceeding 10% of the counts added to the reaction mixture. Data were analyzed using the Prism Graph-Pad curve fitting software.

[6] = test system: T4, MC1-R; experiment: cAMP functional assay, B-16 mouse melanoma cells expressing MC1-R; format: cell-based; conditions: cAMP assay at 1 μM
T4 construct: from B-16 mouse melanoma cells (containing MC1-R); endogenous in cells; host or cells: B-16 mouse melanoma cells
Protocol: as §3, §4

[7] = test system: T3, hMC4-R; experiment: cAMP functional assay in HEK-293 cells expressing MC4-R (agonist, neutral antagonist/Schild); format: cell-based, human; conditions: for intrinsic activity at MC4-R: NDP-α-MSH maximal stimulation = 1.0
Protocol: as §3, §4
Assay for agonist. Evaluation of the molecules to elicit a functional response in HEK-293 cells expressing MC4-R was accomplished by measuring the accumulation of intracellular cAMP following treatment. Confluent HEK-293 cells expressing MC4-R were detached by enzyme free cell suspension buffer. Cells were suspended in Earle's Balanced Salt Solution containing 10 mM HEPES (pH 7.5), 1 mM MgCl2, 1 mM glutamine, 0.5% albumin and 0.3 mM 3-isobutyl-1-methyl-xanthine (IBMX), a phosphodiesterase inhibitor. The cells were plated in 96 well plates at a density of 0.5×10^5 cells per well and pre-incubated for 30 minutes. The cells were then challenged with the test compounds dissolved in DMSO at a concentration range of 0.05-5000 nM in a total assay volume of 200 μL for 1 hour at 37° C. The concentration of DMSO was always held at 1% in the assay mixture. NDP-α-MSH was used as the reference agonist. At the end of the incubation period the cells were disrupted by the addition of 50 μL of lysis buffer from a cAMP EIA kit (Amersham). Complete rupture of the cells was obtained by pipetting the cells multiple times. cAMP levels in the cell lysates were measured after appropriate dilution using the EIA kit (Amersham) method. Data analysis and EC50 values were determined by using nonlinear regression analysis with Prism Graph-Pad software. […] FIG. 1 illustrates typical results, showing the stimulation of cAMP using the compound of Example 11 in HEK-293/MC4-R cells with comparison to NDP-α-MSH.
Assay for Neutral Antagonist. Compounds with a high affinity for binding to MC4-R membranes but with less potency in terms of cAMP accumulation (EC50>1000 nM) and low response ratio (<0.1) were analyzed for their ability to antagonize the stimulatory effect of the agonist NDP-α-MSH. These studies were carried out in HEK-293 cells expressing MC4-R. Cells were incubated with the compounds in the presence of the agonist NDP-α-MSH and the extent of antagonism was measured by the decrease in intracellular cAMP concentrations. Screening the compounds for antagonist activity was performed at a single concentration of NDP-α-MSH (1.0 nM) over a compound concentration range of 0.5-5000 nM.
Experimental details were similar to the analysis for agonistic activity described above. Briefly, cells were pre-incubated for 30 minutes with the test compounds at concentrations between 0.5 nM and 5000 nM. The cells were then stimulated with NDP-α-MSH at a concentration of 1 nM for 1 hour. For Schild's analysis, the interactions were studied using at least 3 concentrations of the compounds, separated by a log unit, over a full range of the agonist (0.005-5000 nM). cAMP levels were measured in the cell lysates after appropriate dilution. Nonlinear regression analysis with Prism Graph-Pad software was used for Schild analysis and to obtain EC50 values. pA2 values were derived from the Schild plot of the data.

[8] = target: T5, MC1-R; experiment: Competitive inhibition assay using [I125]-NDP-α-MSH, MC1-R membranes; format: binding, mouse; conditions: for Inhibition at 1 μM (NDP-α-MSH) MC1-R: 1 μM compound
T5 construct: other: 1 μM compound
Protocol: as §1, §2

[9] = MC4-R membranes, Table 1, read-out: Ki (nM) I125-NPD-α-MSH
[10] = read-out: Ki (nM) (NDP-α-MSH) MC4-R
[11] = MC4-R membranes, Table 1, read-out: Ki (nM) I125-AgRP
[12] = cAMP assay, read-out: EC50 (nM) at MC4-R

Molecule	Inhibition at 1 μM (NDP-α-MSH) MC3-R ([1]; 1 μM compound) [%]	Ki [1] [nM]	functional status at MC5-R [2]	Inhibition at 1 μM (NDP-α-MSH) MC5-R ([3]; 1 μM compound) [%]	Ki [3] [nM]	Inhibition at 1 μM (NDP-α-MSH) MC4-R [4] [%]	Ki [4, 9] [nM]	Ki [4, 10] [nM]	Inhibition at 1 μM (AgRP) MC4-R [5] [%]	Ki [5, 11] [nM]	Ki ([5]; read-out: Ki (nM) (AgRP) MC4-R)	functional status at MC1-R [6]	functional status (pAg, Ag, Antag, Inactive) ([7]; MC4-R, Table 1)	intrinsic activity at MC4-R [7]	functional status at MC4-R ([7]; cAMP assay, mostly at 1 μM)	Ki [8] [nM]	Inhibition at 1 μM (NDP-α-MSH) MC1-R [8] [%]	attenuation of binding of α-MSH and AgRP to MC4-R [4]	EC50 ([7]; MC4-R, Table 1, read-out: EC50) [nM]	EC50 [7, 12] [nM]
CC(C)C[C@H]1CN(C(=O)[C@H](N)Cc2ccc(Cl)cc2Cl)[C@@H](CCCNC(=N)N)CN1CCc1ccc2ccccc2c1 [Example 3, N-{3-[1-[2(R)-Amino-3-(2,4-dichloro-phenyl)-propionyl]-5(S)-isobutyl-4-(2-naphthalen-2-yl-ethyl)-piperazin-2(S)-yl]-propyl}-guanidine]	16	495	partial agonist (intrinsic activity between 0.1 (10%) and 0.7 (70%) is classified as a partial agonist)	28	698	95	48	48	91	39	39	partial agonist (intrinsic activity between 0.1 (10%) and 0.7 (70%) is classified as a partial agonist)	Inactive	no intrinsic activity	inactive	5900	4	–	–	–
NH2—(CH2)6—C(═O)-Ser(Bzl)-D-Phe(4-Cl)-Arg-Trp-NH2 [Example 1]	–	27	–	–	208	–	–	1	–	–	8	–	pAg (“pAg” means partial agonist)	0.3	–	351	33	attenuate the binding of both α-MSH and AgRP to MC4-R	296	296
N=C(N)NCCC[C@H]1C(=O)N(CCc2c[nH]c3ccccc23)CCN1C(=O)[C@H](N)Cc1ccc(Cl)cc1Cl [Example 2, N-(3-{(S)-1-[(R)-2-Amino-3-(2,4-dichloro-phenyl)-propionyl]-4-[2-(1H-indol-3-yl)-ethyl]-3-oxo-piperazin-2-yl}-propyl)-guanidine]	–	533	partial agonist (intrinsic activity between 0.1 (10%) and 0.7 (70%) is classified as a partial agonist)	–	1580	96	15	15	–	38	38	partial agonist (intrinsic activity between 0.1 (10%) and 0.7 (70%) is classified as a partial agonist)	pAg (“pAg” means partial agonist)	0.3	–	1410	7	attenuate the binding of both α-MSH and AgRP to MC4-R	604	604
N=C(N)NCCC[C@H]1CN(CCc2ccc3ccccc3c2)CCN1C(=O)[C@H](N)Cc1ccc(Cl)cc1Cl [Example 18, N-{3-[(S)-1%-[(R)-2-Amino-3-(2,4-dichloro-phenyl)-propionyl]-4-(2-naphthalen-2-ylethyl)-piperazin-2-yl]-propyl}-guanidine]	–	97	–	–	259	–	3	3	100	1	1	–	pAg (“pAg” means partial agonist)	0.4	–	1200	6	attenuate the binding of both α-MSH and AgRP to MC4-R	22	22

— patent publication US20090076029A1 (Palatin Technologies, Inc., priority 2007, published 2009)
